For test [1], the system named is SARS-CoV-2 virus (WA1/2020) strain. The class given is cell-based. The settings on record: for antiviral activity (in words): incubated with SARS-CoV-2; for % viral reduction: virus pre-incubated 10 minutes with sample (conc./dilution per Table 2A), diluted four times, added to vero cells, 48/72 hours, supernatant plaque assay.
In another test the test system is viral particles. The settings on record: electron microscopy; cited from earlier work.

This is an account of results in patent publication US20230218557A1, “A FATTY ACID BASED COMPOSITION FOR TREATMENT AND/OR PREVENTION OF ENVELOPED-VIRUS RELATED INFECTIONS” (priority 2020, published 2023).

Consider `CC/C=C\C/C=C\C/C=C\CCCCCCCC(=O)O` [ALA, α-linolenic acid], for which, in test [1], the “antiviral activity (in words)” value is on record as “showed antiviral activity” and the “% viral reduction” value came to 97.13%.

In the case of Triton X100 [reference compound], the “% viral reduction” value in test [1] stood at 95.23%.

In the case of `CCCCC/C=C\C/C=C\CCCCCCCC(=O)O` [LA, Linoleic acid], in test [1], the “antiviral activity (in words)” value is recorded as “showed antiviral activity” and the “% viral reduction” value is listed as 97.42%. The “virucidal effect (in words)” value in the test on viral particles was “lyse and completely disintegrate viral particles”.

For the compound `CCCCC/C=C\C/C=C\C/C=C\CCCCC(=O)O` [GLA, gamma-linolenic acid], in test [1], the “antiviral activity (in words)” value is reported as “showed antiviral activity” and the “% viral reduction” value was 96.98%. Besides, in the test with viral particles, the “virucidal effect (in words)” value is “lyse and completely disintegrate viral particles”.
